Data reported in US20040248801A1, “Methods and reagents for regulation of cellular responses in biological systems” (priority 2000, published 2004).

What was measured:
B. subtilis 011085 = experiment: B. subtilis capillary accumulation assay; assay type: cell-based, Bacillus subtilis; conditions: saccharide residue concentration; 37° C., 30 min
Text: FIG. 4: Results of B. subtilis capillary accumulation assays using ROMP-derived glucose ligands (compound 5-7, Scheme 1). Buffer alone, glucose, or glucose-bearing compounds 5-7 were used as attractants in the capillary accumulation assay. Results are shown for glucose, compound 5, compound 6, and compound 7. Results are the average of at least four trials performed in duplicate and error bars represent single standard deviations.
To test the generality of the observed valency-dependent differences in chemotactic activities and to investigate the role of membrane permeability in responses to our ligands, chemotactic experiments in B. subtilis were conducted. B. subtilis is a gram-positive bacterium that, like gram-negative E. coli, is able to respond to saccharide chemoattractants. In the case of B. subtilis, the multivalent ligands can directly interact with saccharide-sensing receptors, without having to first traverse the outer membrane. Glucose is a chemoattractant for B. subtilis, but galactose is not. Glucose-carrying ligands (compounds 5-7, Scheme 1) were effective chemoattractants for B. subtilis as shown in capillary accumulation assays. […] Free chemoattractant signal glucose had maximal activity as a chemoattractant at 0.5 mM. In analogy to observations with E. coli, as the valency of the ligand increases, the saccharide residue concentration of maximum chemotaxis decreases. […] The results observed indicate that in evolutionarily divergent bacteria E. coli and B. subtilis, the valency of the attractant influences chemotactic response.
E. coli from an overnight culture were grown in LB to OD550 0.4-0.6, washed twice with E. coli chemotaxis buffer, and then partially permeabilized. Bacteria were resuspended in chemotaxis buffer to an OD550 0.1 and utilized in the capillary accumulation assay at 30° C. for 60 min, as previously described. […] Data was analyzed using the Q and Students tests.

E. coli = conditions: galactose as attractant [34]; cited from earlier work
E. coli AW405 = experiment: video microscopy motion analysis of bacteria; assay type: cell-based, Escherichia coli; conditions: first 5-15 seconds after addition of attractant
Protocol: FIG. 2A: Results of video microscopy motion analysis experiments. Bacteria (Escherichia coli) were treated with buffer alone, galactose, or compound 1 or 3 (Scheme 1) at the indicated saccharide concentrations. The results represent the average from at least five independent experiments performed in triplicate. Error bars represent the deviation between per-second averages during the ten second interval.
Ligands functionalized with galactose such as monovalent ligand 1 and multivalent ligand 3, also serve as attractants in vivo. […] To observe the effects of synthetic ligands on tumbling frequency, E. coli were treated with galactose or galactose-bearing ligands, and bacterial motion was recorded and analyzed using the method of Sager et al.. The tumbling frequency was assessed by averaging the mean angular velocity of the paths obtained in the first 5-15 seconds after addition of attractant (FIG. 2A). […]
Partially permeabilized bacteria (25 μM EDTA for 3 min. at room temperature, then quench with 50 μM CaCl2) at an OD550 of 0.1 were placed under a cover slip supported by additional cover slips in the method of Sager et al.. […] The bacterial motion at 28° C. was recorded, and the paths were analyzed using the ExpertVision system. Paths derived from the first 5 to 15 seconds following the introduction of attractant were analyzed. […] Data were analyzed using the Q and Students tests.

Jurkat cells = experiment: Jurkat cell aggregation; assay type: cell-based
Protocol: Percent of Jurkat cells present in aggregates is plotted against the treatment. […] Aggregate formation could be inhibited by addition of 50 mM methyl a-D-mannopyranoside (a man). Compounds 9-12 were added to a final mannose concentrations of 0.5 μM or 5 μM along with a final ConA concentration of 5 μg/mL. Results are the average of at least three independent experiments and error bars represent single standard deviations.
The ability of Con A clusters formed on ROMP-derived polymers to aggregate Jurkat cells was examined initially by light microscopy (see FIG. 10). […] For Jurkat cells, inhibition occurred even at low concentrations (0.5 μM) of monovalent ligands. […] Increasing the concentration of the multivalent ligand 10-fold (5 μM) abolished aggregation activity, consistent with site saturation. […] The ability of Con A complexed to multivalent ligands to interact with cell surfaces was thus tunable. […]
Cells were pelleted at 400×g, resuspended gently into 50 μL PBS, and then added to slides for visualization at 200× magnification on a Zeiss Axioscope outfitted with the appropriate filter set. Approximately 100-200 cells were counted from random fields on each day.
Clusters were scored for at least two cells in direct contact with each other and expressed as a percentage of the total number of objects (individual cells and clusters) counted. […]

His-tagged FGF-8b = molecular target: T1, His-tagged FGF-8b (Homo sapiens, UniProt P55075); experiment: cross-linking of FGF-8b (EGS, SDS-PAGE); assay type: binding; conditions: increasing ratio of polymer or heparin to FGF-8b
T1 sequence (P55075 23-215 isoform P55075-3 limits assumed): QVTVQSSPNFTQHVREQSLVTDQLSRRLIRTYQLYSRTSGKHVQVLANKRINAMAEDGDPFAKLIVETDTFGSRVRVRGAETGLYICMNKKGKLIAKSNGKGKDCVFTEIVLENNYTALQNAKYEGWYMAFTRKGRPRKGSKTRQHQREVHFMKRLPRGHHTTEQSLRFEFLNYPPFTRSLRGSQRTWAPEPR
Protocol: FIGS. 15A and B are illustrations of SDS-PAGE-gels (12%, under reducing conditions) comparing cross-linking of FGF-8b mediated by nickel-chelating polymer (FIG. 15A) and heparin (FIG. 15B). FGF-8b was incubated with polymer 6 for 1 hour at 0° C. The ratio of FGF-8b to polymer was as follows: a. 1:0.001, b. 1:0.003, c. 1:0.01, d. 1:0.03, e. 1:0.1, f. 1:0.3, f. 1:1. EGS (ethylene glycol bis[succinimidylsuccinate]) was added, and cross-linking was allowed to proceed for 5 minutes at 0° C. The reactions were quenched with ethanolamine (excess) for 1 hour at 0° C. Samples were concentrated under vacuum, analyzed on a 12% SDS-PAGE gel under reducing conditions, and detected with Coomassie staining.
Specifically, one of the functions of the oligosaccharide heparin in vitro is to oligomerize FGF ligand proteins and present them to the FGF receptor in a multivalent fashion. […]
FGF-8b was incubated with polymer 6 for 1 hour at 0° C. […] Samples were concentrated under vacuum, analyzed on a 12% SDS-PAGE gel under reducing conditions, and detected with Coomassie staining.
FGF-8b was incubated with heparin (Sigma, porcine intestinal mucosa, 17-19 kDa) for 1 hour at 0° C. […] Samples were concentrated under vacuum, analyzed on a 12% SDS-PAGE gel under reducing conditions, and detected with Coomassie staining. […]

Compound: O=C(NCCOC1OC(CO)C(O)C(O)C1O)C1C[C@@H]2C=CC1C2 (stereo partly shown) [Compound 5]
- concentration of maximum activity as chemoattractant (B. subtilis 011085): 1 mM

Compound: O=C[C@H](O)[C@@H](O)[C@@H](O)[C@H](O)CO [galactose, reference compound]
- number of E. coli accumulated (E. coli): 120,000 bacteria
- mean angular velocity (tumbling frequency) after addition of attractant (E. coli AW405): the mean angular velocity decreased

Compound: O=C[C@H](O)[C@@H](O)[C@H](O)[C@H](O)CO [glucose, reference compound]
- concentration of maximum activity as chemoattractant (B. subtilis 011085): 0.5 mM

Compound: CO[C@H]1O[C@H](CO)[C@@H](O)[C@H](O)[C@@H]1O [methyl α-D-mannopyranoside]
- effect on Con A aggregate formation (Jurkat cells; 50 mM): inhibited
- effect on Con A-mediated Jurkat cell aggregation (Jurkat cells; ligand 0.5 μM premixed with Con A 5 μg/mL): inhibited aggregation

Compound: heparin
- cross-linking pattern of FGF-8b (His-tagged FGF-8b): pattern in cross-linking indicative of oligomerization due to a specific ligand/scaffold interaction
